The source of these data is ChEMBL document CHEMBL5726188, “Triazolo[4,5-D]pyrimidines” (2019).

One experiment has as its target Cannabinoid receptor 1 (Homo sapiens, UniProt P21554). Kind of experiment: (§1) cAMP Assay: CHO cells expressing human CB1 or CB2 receptors are seeded 17-24 hours prior to the experiment 50.000 cells per well in a black 96 well plate with flat clear bottom (Corning Costar #3904) in DMEM (Invitrogen No. 31331), 1×HT supplement, with 10% fetal calf serum and incubated at 5% CO2 and 37° C. in a humidified incubator. The growth medium was exchanged with Krebs Ringer Bicarbonate buffer with 1 mM IBMX and incubated at 30° C. for 30 min. Compounds were added to a final assay volume of 100 μl and incubated for 30 min at 30° C. Using the cAMP-Nano-TRF detection kit the assay (Roche Diagnostics) was stopped by the addition of 50 μl lysis reagent (Tris, NaCl, 1.5% Triton X100, 2.5% NP40, 10% NaN3) and 50 μl detection solutions (20 μM mAb Alexa700-cAMP 1:1, and 48 μM Ruthenium-2-AHA-cAMP) and shaken for 2 h at room temperature. The time-resolved energy transfer is measured by a TRF reader (Evotec Technologies GmbH), equipped with a ND:YAG laser as excitation source. The plate is measured twice with the excitation at 355 nm and at the emission with a delay of 100 ns and a gate of 100 ns, total exposure time 10 s at 730 (bandwidth 30 nm) or 645 nm (bandwidth 75 nm), respectively.

A further experiment deals with Cannabinoid receptor 2 (Homo sapiens, UniProt P34972). Described as §1.
Sequence of Cannabinoid receptor 2 (P34972 whole entry): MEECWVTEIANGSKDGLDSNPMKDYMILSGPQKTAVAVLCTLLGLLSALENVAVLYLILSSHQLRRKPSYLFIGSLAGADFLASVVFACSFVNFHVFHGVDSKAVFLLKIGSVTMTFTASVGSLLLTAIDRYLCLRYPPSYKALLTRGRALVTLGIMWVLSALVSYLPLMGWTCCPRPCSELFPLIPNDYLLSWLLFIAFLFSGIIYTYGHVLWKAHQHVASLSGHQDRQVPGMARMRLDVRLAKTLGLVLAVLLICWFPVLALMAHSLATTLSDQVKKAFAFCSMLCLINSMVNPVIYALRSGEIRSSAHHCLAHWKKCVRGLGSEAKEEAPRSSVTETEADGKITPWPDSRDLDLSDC

Sequence of Cannabinoid receptor 1 (P21554 whole entry): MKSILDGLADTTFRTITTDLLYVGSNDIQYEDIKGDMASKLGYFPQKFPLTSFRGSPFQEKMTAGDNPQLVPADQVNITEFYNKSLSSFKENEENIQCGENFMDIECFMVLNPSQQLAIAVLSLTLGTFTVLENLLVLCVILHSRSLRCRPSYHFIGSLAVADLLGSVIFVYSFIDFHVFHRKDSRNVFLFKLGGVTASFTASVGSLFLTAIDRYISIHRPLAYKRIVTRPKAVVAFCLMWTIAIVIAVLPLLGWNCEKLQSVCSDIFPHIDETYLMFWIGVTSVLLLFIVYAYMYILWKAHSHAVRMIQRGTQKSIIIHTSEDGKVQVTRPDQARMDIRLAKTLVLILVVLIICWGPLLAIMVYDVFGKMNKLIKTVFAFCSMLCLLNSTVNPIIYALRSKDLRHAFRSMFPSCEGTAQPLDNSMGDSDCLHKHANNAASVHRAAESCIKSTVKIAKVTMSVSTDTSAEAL

In the case of `Cn1nccc1-c1nc(C(C)(C)C)nc2c1nnn2CCC(F)(F)F`, the EC50 is greater than 10000 nM on Cannabinoid receptor 1 and 131 nM on Cannabinoid receptor 2.

As to `Cc1nonc1Cn1nnc2c(-c3ccc(F)nc3)nc(C(C)(C)C)nc21`, the EC50 at Cannabinoid receptor 1 is greater than 10000 nM; on Cannabinoid receptor 2, 639 nM.
